How the values were obtained:
[1] = Partition coefficient between 1-octanol and water containing phosphate buffer at pH 7.4; assay type: physicochemical; settings: 1-octanol/water containing phosphate buffer
P388 [2] = assay: Optimum dose (mg/kg) against P388 leukemic cells; assay type: functional, Mus musculus
P388 [3] = assay: Minimum effective dose against P388 leukemic cells; assay type: functional; settings: Mus musculus, read-out: MED
P388 [4] = assay: Maximum percent T/C (antitumor activity) against P388 leukemia cells for Mitomycin C; assay type: functional, Mus musculus
P388 [5] = assay: Maximum percent T/C (antitumor activity) against P388 leukemia cells; assay type: functional, Mus musculus
P388 [6] = assay: Ratio of optimal dose (OD) and minimum effective dose (MED) required for antitumor activity in mice bearing P-388 lymphocytic leukemia; assay type: functional, Mus musculus

| SMILES | logD [1] | OD (P388 [2]) [mg/kg] | minimal effective dose (P388 [3]) [mg/kg] | T/C (P388 [4]) [%] | T/C (P388 [5]) [%] | Therapeutic ratio (P388 [6]) |
| --- | --- | --- | --- | --- | --- | --- |
| COC12[C@@H]3N[C@@H]3CN1C1=C(C(=O)C(Nc3ccc(I)cc3)=C(C)C1=O)[C@@H]2COC(N)=O (stereo partly drawn) | 2.42 | 25.6 | 25.6 | 200 | 128 | 1 |
| [H][C@@]12CN3c4c(O)c(C)c(/N=C5C=C/C(=N/C(N)=O)C=C\5)c(O)c4[C@H](COC(N)=O)C3(OC)[C@]1([H])N2 (stereo partly drawn) | 0 | 25.6 | 1.6 | 278 | 194 | 16 |
| COC12[C@@H]3N[C@@H]3CN1C1=C(C(=O)C(Nc3cccc(O)c3)=C(C)C1=O)[C@@H]2COC(N)=O (stereo partly drawn) | 0.63 | 12.8 | < 0.2 | 211 | 356 | >64 |
| COC12[C@@H]3N[C@@H]3CN1C1=C(C(=O)C(Nc3cccc4nsnc34)=C(C)C1=O)[C@@H]2COC(N)=O (stereo partly drawn) |  | 12.8 | 0.8 | 250 | 161 | 32 |
| COC12[C@@H]3N[C@@H]3CN1C1=C(C(=O)C(Nc3cccc(C#N)c3)=C(C)C1=O)[C@@H]2COC(N)=O (stereo partly drawn) | 0.73 | 12.8 | 0.2 | 156 | 172 | 64 |
| COC1=C/C(=N/c2c(C)c(O)c3c(c2O)[C@H](COC(N)=O)C2(OC)[C@@H]4N[C@@H]4CN32)C=CC1=N (stereo partly drawn) |  | 25.6 | 1.6 | 311 | 239 | 16 |
| COC12[C@@H]3N[C@@H]3CN1C1=C(C(=O)C(Nc3ccccc3)=C(C)C1=O)[C@@H]2COC(N)=O (stereo partly drawn) | 1.3 | 12.8 | 1.6 | 200 | 161 | 8 |
| COC12[C@@H]3N[C@@H]3CN1C1=C(C(=O)C(Nc3ccc4c(c3)OCO4)=C(C)C1=O)[C@@H]2COC(N)=O (stereo partly drawn) |  | 3.2 | < 0.2 | 211 | 167 | >16 |
| COc1cc(NC2=C(C)C(=O)C3=C(C2=O)[C@H](COC(N)=O)C2(OC)[C@@H]4N[C@@H]4CN32)cc(OC)c1 (stereo partly drawn) |  | 6.4 | 0.4 | 278 | 161 | 16 |
| COC12[C@@H]3N[C@@H]3CN1C1=C(C(=O)C(Nc3ccc([N+](=O)[O-])cc3)=C(C)C1=O)[C@@H]2COC(N)=O (stereo partly drawn) | 1.02 | 3.2 | < 0.2 | 233 | 172 | >16 |
| COc1cc(/N=C2/C(=O)C3=C(C(O)=C2C)N2C[C@H]4N[C@H]4C2(OC)[C@H]3COC(N)=O)c2ncccc2c1 (stereo partly drawn) |  | 6.4 | 0.4 | 178 | 178 | 16 |
| COC12[C@@H]3N[C@@H]3CN1C1=C(C(=O)C(Nc3cccc(C)c3)=C(C)C1=O)[C@@H]2COC(N)=O (stereo partly drawn) | 1.83 | 12.8 | 0.4 | 319 | 181 | 32 |
| COC12[C@@H]3N[C@@H]3CN1C1=C(C(=O)C(Nc3ccc(S(N)(=O)=O)cc3)=C(C)C1=O)[C@@H]2COC(N)=O (stereo partly drawn) | -0.52 | 25.6 | 0.2 | 213 | 225 | 128 |
| COC12[C@@H]3N[C@@H]3CN1C1=C(C(=O)C(Nc3ccc(F)cc3)=C(C)C1=O)[C@@H]2COC(N)=O (stereo partly drawn) | 1.44 | 12.8 |  | 278 | 167 | 32 |
| COC12[C@@H]3N[C@@H]3CN1C1=C(C(=O)C(Nc3nc4ccccc4s3)=C(C)C1=O)[C@@H]2COC(N)=O (stereo partly drawn) |  | 25.6 | 12.8 | 325 | 150 | 2 |
| COC12[C@@H]3N[C@@H]3CN1C1=C(C(=O)C(Nc3cccc(Cl)c3)=C(C)C1=O)[C@@H]2COC(N)=O (stereo partly drawn) | 2.01 | 12.8 | 6.4 | 156 | 139 | 2 |
| COc1ccccc1/N=C1/C(=O)C2=C(C(O)=C1C)N1C[C@H]3N[C@H]3C1(OC)[C@H]2COC(N)=O (stereo partly drawn) |  | 25.6 | 0.4 | 206 | 200 | 128 |
| COC12[C@@H]3N[C@@H]3CN1C1=C(C(=O)C(Nc3cccc(NC(C)=O)c3)=C(C)C1=O)[C@@H]2COC(N)=O (stereo partly drawn) | 0.33 | 25.6 | 0.2 | 211 | 231 | 128 |
| COc1cccc(NC2=C(C)C(=O)C3=C(C2=O)[C@H](COC(N)=O)C2(OC)[C@@H]4N[C@@H]4CN32)c1 (stereo partly drawn) | 1.28 | 12.8 | 0.2 | 319 | 181 | 64 |
| COC12[C@@H]3N[C@@H]3CN1C1=C(C(=O)C(Nc3nc4c(Cl)cccc4s3)=C(C)C1=O)[C@@H]2COC(N)=O (stereo partly drawn) |  | 25.6 | 0.4 | 319 | 144 | 64 |
| COc1ccc(NC2=C(C)C(=O)C3=C(C2=O)[C@H](COC(N)=O)C2(OC)[C@@H]4N[C@@H]4CN32)cc1N (stereo partly drawn) |  | 6.4 | 0.2 | 311 | 228 | 32 |
| COC12[C@@H]3N[C@@H]3CN1c1c(O)c(C)c(N=C3C=CC(=S)C=C3)c(O)c1[C@@H]2COC(N)=O (stereo partly drawn) | 1.69 | 25.6 | 1.6 | 250 | 131 | 16 |
| COC12[C@@H]3N[C@@H]3CN1C1=C(C(=O)C(Nc3nc4ccc([N+](=O)[O-])cc4s3)=C(C)C1=O)[C@@H]2COC(N)=O (stereo partly drawn) |  | 25.6 | 25.6 | 156 | 128 | 1 |
| COC12[C@@H]3N[C@@H]3CN1C1=C(C(=O)C(Nc3ccc(C#N)cc3)=C(C)C1=O)[C@@H]2COC(N)=O (stereo partly drawn) | 0.72 | 3.2 | 0.8 | 233 | 150 | 4 |
| COC12[C@@H]3N[C@@H]3CN1C1=C(C(=O)C(Nc3ccc4[nH]ncc4c3)=C(C)C1=O)[C@@H]2COC(N)=O (stereo partly drawn) |  | 25.6 | 0.2 | 250 | 206 | 128 |

From ChEMBL document CHEMBL1122660 (J Med Chem, 1984)
